This passage reports IC50 results from ChEMBL document CHEMBL1144595, “Novel pyridinyl and pyrimidinylcarbazole sulfonamides as antiproliferative agents” (Bioorg Med Chem Lett, 2007).

As usually defined, the IC50 is the midpoint of a concentration-inhibition curve. A high value points to weaker potency.

What all share (type): functional, cell-based
One experiment has as its system CCRF-CEM. Briefly: Cytotoxicity against human CEM cells.
A short description of experiment [1]: Antiproliferative activity against human DND1 cells.
The next experiment concerns MOLT-3. The experiment is described as follows: Antiproliferative activity against human Molt3 cells.
A further experiment concerns Bel-7402. Briefly: Antiproliferative activity against human Bel-7402 cells.
For the next experiment, the system named is MCF7. The experiment is described as follows: Antiproliferative activity against human MCF7 cells.
Another experiment concerns DU-145. Briefly: Antiproliferative activity against human DU145 cells.
In the next experiment the test system is PC-3. Briefly: Antiproliferative activity against human PC3 cells.

As to `CCn1c2ccccc2c2cc(S(=O)(=O)Nc3ccc(Cl)nc3Cl)ccc21`, in the experiment with CCRF-CEM, the IC50 was > 2000 nM.
For `COc1cc([C@@H]2c3cc4c(cc3[C@H](O)[C@H]3COC(=O)[C@H]23)OCO4)cc(OC)c1OC` [PODOFILOX], the values for the IC50 (with CCRF-CEM; in experiment [1]) were 7.2 nM and 12 nM, respectively.
On to `CCn1c2ccccc2c2cc(S(=O)(=O)Nc3ccc(C)nc3C)ccc21`, for which the IC50 in the experiment with CCRF-CEM is > 2000 nM.
In turn, `COc1ccc(NS(=O)(=O)c2ccc3c(c2)c2ccccc2n3C)c(OC)n1` came in with an IC50 in the experiment with CCRF-CEM of 101 nM.
Compound `COc1ccc(NS(=O)(=O)c2ccc3c(ccn3C)c2)c(OC)n1` gave an IC50 in the experiment on CCRF-CEM of 712 nM.
On to `CCn1c2ccccc2c2cc(/C=C\c3ccc(OC)nc3OC)ccc21`, for which the IC50 with CCRF-CEM is > 2000 nM.
Turning to `CCn1c2ccccc2c2cc(S(=O)(=O)Nc3ccc(OC)nc3OC)ccc21`, the IC50 in the experiment with CCRF-CEM was 122 nM; with MOLT-3, 22 nM; in the experiment on Bel-7402, 976 nM; in the experiment with MCF7, 241 nM; with DU-145, 729 nM; in the experiment on PC-3, 603 nM. In addition, in experiment [1], the IC50 came out at 193 nM.
`CCn1c2ccccc2c2cc(S(=O)(=O)Nc3ccc(OC)nc3)ccc21` showed an IC50 with CCRF-CEM of 649 nM.
In the case of `CCn1c2ccccc2c2cc(/C=C/c3ccc(OC)nc3OC)ccc21`, the IC50 with CCRF-CEM is > 2000 nM.
`CCn1c2ccccc2c2cc(S(=O)(=O)Nc3cc(OC)c(OC)c(OC)c3)ccc21`: the figures for the IC50 (in the experiment on CCRF-CEM; in experiment [1]) were 56 nM and 89 nM, respectively.
In the case of `CCn1c2ccccc2c2cc(S(=O)(=O)Nc3ccc(OC)cc3OC)ccc21`, the IC50 was 57 nM in the experiment on CCRF-CEM and 120 nM in experiment [1].
As to `CCn1c2ccccc2c2cc(S(=O)(=O)Nc3cc(OC)nc(OC)n3)ccc21`, in the experiment with CCRF-CEM, the IC50 is > 2000 nM.
Consider `COc1ccc(NS(=O)(=O)c2ccc3c(c2)CCN3C)c(OC)n1`, for which the IC50 in the experiment on CCRF-CEM is > 2000 nM.
In turn, `COc1ccc(/C=C\c2ccc(OC)c(O)c2)c(OC)n1` came in with an IC50 in the experiment with CCRF-CEM of 342 nM.
In turn, `COc1ccc(/C=C\c2cc(OC)c(OC)c(OC)c2)cc1O` [COMBRETASTATIN A4] yielded a 50% inhibitory concentration (IC50) in experiment [1] of 2.5 nM.
As for `CCn1c2ccccc2c2cc(S(=O)(=O)Nc3cc(Cl)nc(Cl)c3)ccc21`, the IC50 with CCRF-CEM was > 2000 nM.
Turning to `CCn1c2ccccc2c2cc(S(=O)(=O)Nc3cc(OC)ncn3)ccc21`, in the experiment with CCRF-CEM, the IC50 is > 2000 nM.
Same read-out and setting: for `COc1ccc(/C=C/c2ccc(OC)c(O)c2)c(OC)n1` the value was > 2000 nM.
Take `CCn1c2ccccc2c2cc(S(=O)(=O)Nc3nc(OC)cc(OC)n3)ccc21`: the IC50 in the experiment with CCRF-CEM is > 2000 nM.
Still for that read-out and setting: for `CCn1c2ccccc2c2cc(S(=O)(=O)Nc3cccnc3OC)ccc21` the value was 786 nM.
